Test results as given in publication PMC4937837 (Journal of Medicinal Chemistry, 2015).

Details: mouse liver microsomes, NADPH, 1 μM compound, 1 h incubation

in vitro rate constant (k): −0.017
Structure (SMILES): O=C(NCCCCN1CCN(c2cccc3ccccc23)CC1)c1cnc2ccccc2c1 [Compound 32, N-(4-(4-(Naphthalen-1-yl)piperazin-1-yl)butyl)quinoline-3-carboxamide]
